# Data taken from publication PMC5775429, “LY2087101 and dFBr share transmembrane binding sites in the (α4)3(β2)2 Nicotinic Acetylcholine Receptor” (Scientific Reports, 2018).
# Several values for one entry are separate records, joined by “and”; a condition that tells them apart may be missing. Equal entries are not always repeated. Where two headings read alike, the source gives them in different places. Marks after values point to notes of the source that are not given here.
# Legend:
# (α4)2(β2)3 nAChR [1] = molecular target: T1, (α4)2(β2)3 nAChR (Homo sapiens, UniProt P17787+P43681); assay: Two-electrode voltage-clamp of ACh-induced currents in Xenopus oocytes; format: cell-based
# T1 construct: expressed in transfected cells; host or cells: Xenopus laevis oocytes injected with cRNA
# Method: To begin to characterize LY2087101 interaction with the heteropentameric α4β2 nAChRs, we examined the selectivity of LY2087101 for the two α4β2 nAChR isoforms; high-agonist sensitivity (α4)2(β2)3 and low-agonist sensitivity (α4)3(β2)2 nAChRs. Xenopus oocytes were injected with α4 and β2 subunits RNAs at ratios 8:1 and 1:8 to favor expression of (α4)3(β2)2 and (α4)2(β2)3 nAChRs, respectively.
# Ovarian lobules were surgically harvested from oocytes-positive female Xenopus laevis (NASCO, Fort Atkinson, WI) according to an animal use protocol approved by the Texas A&M Health Sciences Center Institutional Animals Care and Use Committee. The Texas A&M Health Sciences Center Research Facility is registered as an animal research facility with the United States Department of Agriculture and is fully accredited by the American Association for Accreditation of Laboratory Animal Care (AAALAC). For oocytes defolliculation, ovarian lobes were treated with 3 mg/ml collagenase type 2 (Worthington Biomedical, Lakewood, NJ) in Ca + 2-free buffer (85 mM NaCl, 2.5 mM KCl, 1 mM MgCl2, 5 mM HEPES, pH 7.6). Collagenase treatment was allowed to proceed for 3 hours at room temperature with gentle shaking then oocytes were washed several times with buffer to remove collagenase then with ND96-gentamicine buffer. Healthy Stage V and VI oocytes were visually selected and maintained at 18 °C in modified ND96-gentamicine buffer (96 mM NaCl, 2 mM KCl, 1.8 mM CaCl2, 1 mM MgCl2, 5 mM HEPES, 50 µg/ml gentamicin, pH 7.6). Oocytes were injected with 50–100 ng of the desired nAChR subunits cRNA mix at ratios of 8α:1β or 1α:8β to express nAChRs with subunit stoichiometries of 3α:2β (low agonist sensitivity) or 2α:3β (high agonist sensitivity), respectively.
# Oocytes were continuously perfused with recording buffer (100 mM NaCl, 2 mM KCl, 1 mM CaCl2, 0.8 mM MgCl2, 1 mM EGTA, 10 mM Hepes, pH 7.5) except during periods of drug applications.
# (α4)3(β2)2 nAChR = molecular target: T2, (α4)3(β2)2 nAChR (Homo sapiens, UniProt P17787+P43681); conditions: cited from earlier work
# T2 construct: expressed in transfected cells; host or cells: Xenopus laevis oocytes injected with cRNA
# (α4)2(β2)3 nAChR [2] = molecular target: T1, (α4)2(β2)3 nAChR; conditions: cited from earlier work
# (α4L63I)3(β2)2 nAChR = (α4L63I)3(β2)2 nAChR (Homo sapiens, UniProt P43681, L63I); parameters: method as in PMID 28446611; conditions: 10 µM ACh + 1 µM dFBr vs 10 µM ACh alone; data reported previously ref 29; cited from earlier work
# (α4G67E)3(β2)2 nAChR = (α4G67E)3(β2)2 nAChR (Homo sapiens, UniProt P43681, G67E); parameters: method as in PMID 28446611; conditions: 10 µM ACh + 1 µM dFBr vs 10 µM ACh alone; data reported previously ref 29; cited from earlier work
# (α4Q150T)3(β2)2 nAChR = (α4Q150T)3(β2)2 nAChR (Homo sapiens, UniProt P43681, Q150T); parameters: method as in PMID 28446611; conditions: 10 µM ACh + 1 µM dFBr vs 10 µM ACh alone; data reported previously ref 29; cited from earlier work
# animal model [3] = test system: animal model; parameters: method as in PMID 23712602, PMID 28446611, PMID 28809075, PMID 28105008; conditions: cited from earlier work
# animal model [4] = test system: animal model; parameters: method as in PMID 23712602, PMID 28446611, PMID 28809075, PMID 28105008; conditions: cited from earlier work; remark: listed apart in the source
# animal model [5] = test system: animal model; parameters: method as in PMID 23712602, PMID 28446611, PMID 28809075, PMID 28105008; conditions: cited from earlier work; remark: listed apart in the source
# [6] = ACh concentration-response curve
# T1 sequence (P43681 29-627 limits assumed): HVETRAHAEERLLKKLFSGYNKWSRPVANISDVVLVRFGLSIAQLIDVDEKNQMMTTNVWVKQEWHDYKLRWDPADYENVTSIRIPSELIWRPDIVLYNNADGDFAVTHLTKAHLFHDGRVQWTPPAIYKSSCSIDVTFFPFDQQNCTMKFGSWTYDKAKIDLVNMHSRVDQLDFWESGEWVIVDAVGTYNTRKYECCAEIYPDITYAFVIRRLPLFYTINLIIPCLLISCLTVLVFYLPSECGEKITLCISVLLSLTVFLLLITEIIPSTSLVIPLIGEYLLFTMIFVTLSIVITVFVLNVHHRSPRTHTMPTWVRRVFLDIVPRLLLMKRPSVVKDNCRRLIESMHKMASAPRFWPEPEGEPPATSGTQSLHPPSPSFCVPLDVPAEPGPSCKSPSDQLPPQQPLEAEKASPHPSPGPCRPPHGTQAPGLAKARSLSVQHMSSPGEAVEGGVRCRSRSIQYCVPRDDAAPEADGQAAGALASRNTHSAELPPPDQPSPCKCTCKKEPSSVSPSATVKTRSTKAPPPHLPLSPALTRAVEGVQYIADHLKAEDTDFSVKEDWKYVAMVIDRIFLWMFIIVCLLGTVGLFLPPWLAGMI
# T1 sequence (P17787 26-502): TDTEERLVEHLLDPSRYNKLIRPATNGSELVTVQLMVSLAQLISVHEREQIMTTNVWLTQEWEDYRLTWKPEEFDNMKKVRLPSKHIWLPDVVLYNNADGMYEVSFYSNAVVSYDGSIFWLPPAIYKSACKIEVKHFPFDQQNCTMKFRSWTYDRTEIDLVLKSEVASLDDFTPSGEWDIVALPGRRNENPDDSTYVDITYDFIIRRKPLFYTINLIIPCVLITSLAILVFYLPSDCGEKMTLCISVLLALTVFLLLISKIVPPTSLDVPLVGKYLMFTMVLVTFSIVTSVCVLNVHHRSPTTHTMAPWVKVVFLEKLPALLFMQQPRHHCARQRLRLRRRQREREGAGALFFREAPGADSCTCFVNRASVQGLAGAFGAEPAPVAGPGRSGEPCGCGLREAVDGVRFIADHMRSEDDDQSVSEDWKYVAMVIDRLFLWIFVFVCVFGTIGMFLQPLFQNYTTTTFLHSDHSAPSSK
# T2 sequence (P43681 29-627 limits assumed): as the sequence (P43681 29-627 limits assumed) above
# T2 sequence (P17787 26-502): as the sequence (P17787 26-502) above
# (α4L63I)3(β2)2 nAChR, sequence (P43681 29-627 L63I limits assumed): as the sequence (P43681 29-627 limits assumed) above, with L35I counted along it
# (α4L63I)3(β2)2 nAChR, sequence (P17787 26-502 partner): as the sequence (P17787 26-502) above
# (α4G67E)3(β2)2 nAChR, sequence (P43681 29-627 G67E limits assumed): as the sequence (P43681 29-627 limits assumed) above, with G39E counted along it
# (α4G67E)3(β2)2 nAChR, sequence (P17787 26-502 partner): as the sequence (P17787 26-502) above
# (α4Q150T)3(β2)2 nAChR, sequence (P43681 29-627 Q150T limits assumed): as the sequence (P43681 29-627 limits assumed) above, with Q122T counted along it
# (α4Q150T)3(β2)2 nAChR, sequence (P17787 26-502 partner): as the sequence (P17787 26-502) above
Structure (SMILES),"ACh Imax in the presence of 1 µM LY2087101 ((α4)2(β2)3 nAChR [1]; ACh concentration-response curve, normalized to 1 mM ACh alone)","EC50 ((α4)2(β2)3 nAChR [1]; co-applied with 10 µM ACh, HS WT, read-out: LY2087101 potentiation EC50)",increase in ACh efficacy (Imax) by dFBr ((α4)3(β2)2 nAChR; [6]),dFBr maximal potentiation ((α4)3(β2)2 nAChR),increase in ACh efficacy (Imax) by dFBr ((α4)2(β2)3 nAChR [2]; [6]),dFBr maximal potentiation ((α4)2(β2)3 nAChR [2]),EC50 ((α4)2(β2)3 nAChR [2]; read-out: dFBr potentiation EC50),"R, potentiation ratio (PR) ((α4L63I)3(β2)2 nAChR)","R, potentiation ratio (PR) ((α4G67E)3(β2)2 nAChR)","R, potentiation ratio (PR) ((α4Q150T)3(β2)2 nAChR)",nicotine self-administration (animal model [3]),antiallodynic response of nicotine (animal model [4]),nicotine withdrawal signs (animal model [5])
"Cc1nc(Nc2ccc(F)cc2)sc1C(=O)c1ccsc1 [LY2087101, [2-[(4-Fluorophenyl)amino]-4-methyl-5-thiazolyl]-3-thienylmethanone]",189 ± 2% and ~190%,1.9 ± 0.04 µM,–,–,–,–,–,–,–,–,–,–,–
C=CC(C)(C)c1[nH]c2cc(Br)ccc2c1CCNC [dFBr],–,–,~ 4 fold,400%,~ 4 fold,300%,~1 µM,3.5 ± 0.3^a,4.1 ± 0.2^a,3.9 ± 0.1^a,reduce nicotine self-administration,potentiate the antiallodynic response of nicotine,reverse nicotine withdrawal signs
